# From patent publication US20250325569A1, “COMPOSITIONS AND METHODS OF MAKING AND USE THEREOF” (Ohio State Innovation Foundation, priority 2022, published 2025)
# Assays:
# Format in all cases: cell-based
# Escherichia coli K12 = test: Microbroth dilution MIC; conditions: for MIC: Escherichia coli K12
# Description: (§1) Antimicrobial Assays. Susceptibility testing was performed using the microbroth dilution method in 96 round-well microtiter plates following the general guidelines described by the Clinical and Laboratory Standards Institute (CLSI). Compounds were prepared as 50λ of stocks (10 mM) by dissolving in dI H2O. All bacterial strains were grown and assayed in Mueller-Hinton and M9 glucose media (with amendments added as required), and yeast strains in YMM. Overnight cultures were inoculated into 3 mL of fresh growth media following a 1:100 dilution. Upon mid-exponential growth (OD600 0.4-0.6), cultures were diluted to 5×10^6 CFU mL-1 (based on previously determined calibration curves) and used as inoculum into assay plates. Wells contained 100 μL of media with 5×10^5 CFU mL-1 of test organism, and serial ½-dilutions of the test compound (starting with 200 μM). E. coli WM6242 was assayed with induction of the phosphonic acid uptake system including 1 mM IPTG in assay wells. Controls wells contained 200 µM kanamycin (for bacteria) or nystatin (for yeasts), no compound addition (vehicle only), and no cell addition (added media instead). Microtiter plates were incubated with shaking (220 rpm) at their respective growth temperatures. Culture densities (OD600) were recorded using a Bio-Rad xMark microplate spectrophotometer after 16 hours for all strains except Bacillus, which were after 24 hours. Assays were performed in triplicated on separate independent days. […] Minimum inhibitory concentrations are from triplicate assays performed on separate days.
# (§2) Antimicrobial Assays. […] Susceptibility testing was performed using the microbroth dilution method in 96 round-well microtiter plates as previously described [A20]. Compounds were prepared as 50× of stocks (10 Mm) by dissolving in Di H2O. All bacterial strains were grown and assayed M9 glucose media (with amendments added as required), and yeast strains in YMM. Controls wells contained 200 µM kanamycin (for bacteria) or nystatin (for yeasts), no compound addition (vehicle only), and no cell addition (added media instead). Culture densities (OD600) were recorded using a Bio-Rad xMark microplate spectrophotometer after 16 hours for all strains except bacilli, which were recorded after 24 hours. […] MICs values are from triplicate assays performed on separate days. Disk diffusion assays were used to assess antimicrobial activity of the purified compounds against filamentous fungi and against Mycobacterium smegmatis [A20].
# Salmonella enterica LT2 = test: Microbroth dilution MIC; conditions: for MIC: Salmonella enterica LT2
# Description: as §1, §2
# [1] = tested on: Serratia marcescens NRRL B-2544; test: Microbroth dilution MIC; conditions: for MIC: Serratia marcescens NRRL B-2544
# Description: as §1, §2
# Pseudomonas aeruginosa K = test: Microbroth dilution MIC; conditions: for MIC: Pseudomonas aeruginosa K
# Description: as §1, §2
# [2] = tested on: Curtobacterium sp. MMLR14_014; test: Antibacterial susceptibility testing; conditions: strains of Curtobacterium commonly present in soils and on plants
# Description: as §2
# [3] = tested on: Escherichia coli WM6242 (Pn Uptake Induced); test: Microbroth dilution MIC, phosphonate uptake induced with 1 mM IPTG
# Description: (§3) Antimicrobial Assays. […] Compounds were prepared as 50λ of stocks (10 mM) by dissolving in dI H2O. […] Overnight cultures were inoculated into 3 mL of fresh growth media following a 1:100 dilution. Upon mid-exponential growth (OD600 0.4-0.6), cultures were diluted to 5×10^6 CFU mL-1 (based on previously determined calibration curves) and used as inoculum into assay plates. Wells contained 100 μL of media with 5×10^5 CFU mL-1 of test organism, and serial ½-dilutions of the test compound (starting with 200 μM). E. coli WM6242 was assayed with induction of the phosphonic acid uptake system including 1 mM IPTG in assay wells. […] Microtiter plates were incubated with shaking (220 rpm) at their respective growth temperatures. […] Assays were performed in triplicated on separate independent days. […] Minimum inhibitory concentrations are from triplicate assays performed on separate days.
# [4] = tested on: yeast, and filamentous fungi; test: Antifungal activity: microbroth dilution (yeasts) and disk diffusion (filamentous fungi); conditions: panel of yeast and filamentous fungi (Table 12)
# Description: Antimicrobial Assays. Susceptibility testing was performed using the microbroth dilution method in 96 round-well microtiter plates following the general guidelines described by the Clinical and Laboratory Standards Institute (CLSI). Compounds were prepared as 50λ of stocks (10 mM) by dissolving in dI H2O. All bacterial strains were grown and assayed in Mueller-Hinton and M9 glucose media (with amendments added as required), and yeast strains in YMM. Overnight cultures were inoculated into 3 mL of fresh growth media following a 1:100 dilution. Upon mid-exponential growth (OD600 0.4-0.6), cultures were diluted to 5×10^6 CFU mL-1 (based on previously determined calibration curves) and used as inoculum into assay plates. Wells contained 100 μL of media with 5×10^5 CFU mL-1 of test organism, and serial ½-dilutions of the test compound (starting with 200 μM). E. coli WM6242 was assayed with induction of the phosphonic acid uptake system including 1 mM IPTG in assay wells. […] Culture densities (OD600) were recorded using a Bio-Rad xMark microplate spectrophotometer after 16 hours for all strains except Bacillus, which were after 24 hours. […]
# Antimicrobial Assays. […] Culture densities (OD600) were recorded using a Bio-Rad xMark microplate spectrophotometer after 16 hours for all strains except bacilli, which were recorded after 24 hours. […]
# [5] = tested on: Pseudomonas aeruginosa PA01; test: Microbroth dilution MIC
# Description: as §1, §2
# [6] = tested on: Bacillus megaterium ATCC 19213; test: Microbroth dilution MIC
# Description: as §1, §2
# [7] = tested on: Staphylococcus aureus ATCC 23055; test: Microbroth dilution MIC
# Description: as §1, §2
# [8] = tested on: Acinetobacter calcoaceticus ATCC 23055; test: Microbroth dilution MIC
# Description: as §1, §2
# [9] = tested on: Erwinia rhapontici KSJ3948; test: Microbroth dilution MIC
# Description: as §1, §2
# [10] = tested on: Pantoea ananatis LMG 20103; test: Microbroth dilution MIC
# Description: as §1, §2
# Rhodococcus jostii RHA1 = test: Microbroth dilution MIC
# Description: as §1, §2
# [11] = tested on: Enterobacter aerogenes CDC 1998-68; test: Microbroth dilution MIC
# Description: as §1, §2
# [12] = tested on: Citrobacter freundii ATCC 8090; test: Microbroth dilution MIC
# Description: as §1, §2
# [13] = tested on: Bacillus subtilis ATCC 6633; test: Microbroth dilution MIC
# Description: as §1, §2
# [14] = tested on: Pseudomonas syringae B278a; test: microbe, parasite or virus in culture; conditions: Table 13, minimal media
# Description: as §2
# Escherichia coli WM6242 = test: Microbroth dilution MIC; conditions: Table 2 (MIC90), triplicate
# Description: as §3
# [15] = tested on: Acidovroax delafieldii ATCC 17505; test: Microbroth dilution MIC; conditions: Table 13, minimal media
# Description: as §2
# [16] = tested on: Acidovorax citrulli ATCC 29625; test: Microbroth dilution MIC; conditions: Paracidovorax citrulli, ATCC29625, Table 13, minimal media
# Description: as §2
# [17] = tested on: Salmonella enterica ser. Livingstone 1236H; test: Microbroth dilution MIC
# Description: as §2
# [18] = tested on: Pseudomonas syringae pv. Tomato Max 14; test: Microbroth dilution MIC; conditions: Table 13, minimal media
# Description: as §2
# [19] = tested on: Pseudomonas medocina Palleroni ATCC 25411; test: Microbroth dilution MIC; conditions: ATCC25411, Table 13, minimal media
# Description: as §2
# [20] = tested on: Acidovorax temperans ATCC 49665; test: Microbroth dilution MIC; conditions: ATCC49665, Table 13, minimal media
# Description: as §2
# [21] = tested on: Pseudomonas fluorescens Pf5; test: Microbroth dilution MIC; conditions: Table 13, minimal media
# Description: as §2
# [22] = tested on: Salmonella enterica ser. Tennessee E2007000304; test: Microbroth dilution MIC; conditions: Table 13, minimal media
# Description: as §2
# [23] = tested on: Acidovorax avenae ATCC 19860; test: Microbroth dilution MIC; conditions: Paracidovorax avenae, ATCC19860, Table 13, minimal media
# Description: as §2
# [24] = tested on: Acidovorax konjacii ATCC 33996; test: Microbroth dilution MIC; conditions: Table 13, minimal media
# Description: as §2
# [25] = Table 2 (MIC90), microbroth dilution, triplicate
# [26] = Table 13, minimal media, ≥90% growth inhibition
# [27] = ATCC23055, Table 2 (MIC90), microbroth dilution, triplicate
smiles,measurement,setting,value
CC(N)C(=O)NC(C)C(=O)NC(CP(=O)(O)O)C(=O)O (stereo not drawn) [Compound 3],inhibitory activity compared with phosphonoalamide A (previously measured),"Escherichia coli K12; E. coli K12, i.e. lower MICs",greater inhibitory activity
same,inhibitory activity compared with phosphonoalamide A (previously measured),"Salmonella enterica LT2; S. enterica LT2, i.e. lower MICs",greater inhibitory activity
same,inhibitory activity compared with phosphonoalamide A (previously measured),"[1]; S. marcescens B-2544, i.e. lower MICs",greater inhibitory activity
same,inhibitory activity compared with phosphonoalamide A (previously measured),"Pseudomonas aeruginosa K; P. aeuroginosa K, i.e. lower MICs",greater inhibitory activity
same,inhibition (in words),[2],Neither compound inhibited
CC(N)C(=O)NC(CP(=O)(O)O)C(=O)O (stereo not drawn) [Compound 2],MIC,[3],> 200 µM
same,antifungal activity (in words),[4],neither compound exhibited antifungal activity
same,MIC,Escherichia coli K12; [25],> 200 µM
same,MIC,Escherichia coli K12; [26],>200 µM
same,MIC,[5]; [25],> 200 µM
same,MIC,"[5]; Table 13, minimal media",>200 µM
same,MIC,Salmonella enterica LT2; [25],> 200 µM
same,MIC,Salmonella enterica LT2; [26],>200 µM
same,MIC,"[6]; Priestia megaterium, ATCC19213, Table 2 (MIC90), microbroth dilution, triplicate",12.5 µM
same,MIC,"[6]; Table 13, minimal media",12.5 µM
same,MIC,[7]; [27],> 200 µM
same,MIC,"[7]; Table 13, minimal media",>200 µM
same,MIC,"[1]; NRRLB2544, Table 2 (MIC90), microbroth dilution, triplicate",> 200 µM
same,MIC,"[1]; Table 13, minimal media",>200 µM
same,MIC,[8]; [27],> 200 µM
same,MIC,"[8]; Table 13, minimal media",>200 µM
same,MIC,"[9]; KSJ3948, Table 2 (MIC90), Erwinia rhapontici KSJ, microbroth dilution, triplicate",> 200 µM
same,MIC,"[9]; Table 13, Erwinia rhapontici KSJ3948, minimal media, ≥90% growth inhibition",>200 µM
same,MIC,"[10]; LMG20103, Table 2 (MIC90), microbroth dilution, triplicate",100 µM
same,MIC,[10]; [26],100 µM
same,MIC,Rhodococcus jostii RHA1; [25],> 200 µM
same,MIC,"Rhodococcus jostii RHA1; Table 13, minimal media",>200 µM
same,MIC,Pseudomonas aeruginosa K; [25],> 200 µM
same,MIC,"Pseudomonas aeruginosa K; Table 13, minimal media",>200 µM
same,MIC,"[11]; Klebsiella aerogenes, CDC199868, Table 2 (MIC90), microbroth dilution, triplicate",> 200 µM
same,MIC,[11]; [26],>200 µM
same,MIC,"[12]; ATCC8090, Table 2 (MIC90), microbroth dilution, triplicate",> 200 µM
same,MIC,[12]; [26],>200 µM
same,MIC,"[13]; ATCC6633, Table 2 (MIC90), microbroth dilution, triplicate",200 µM
same,MIC,"[13]; Table 13, minimal media",200 µM
same,MIC,[14],> 200 µM
same,MIC,Escherichia coli WM6242,> 200 µM
same,MIC,[15],> 200 µM
same,MIC,[16],> 200 µM
same,MIC,[17],> 200 µM
same,MIC,[18],> 200 µM
same,MIC,[19],> 200 µM
same,MIC,[20],> 200 µM
same,MIC,[21],> 200 µM
same,MIC,[22],> 200 µM
same,MIC,[23],> 200 µM
same,MIC,[24],> 200 µM
same,inhibition (in words),[2],Neither compound inhibited
